This is an account of results in patent publication US9499550B2 (BRISTOL-MYERS SQUIBB COMPANY, priority 2012, dated 2016).

Like-named read-outs stand apart in the source and are kept apart here.

Experiment [1] has as its system HCV genotype 1b (Con1) replicon in HUH-7 cells. Briefly: HCV replicon luciferase reporter assay, genotype 1b. It counts as cell-based. The following applies: Hepatitis C virus, Huh-7, 72 h, HCV genotype 1b replicon luciferase, 3 days incubation, read-out: LE_1b (EC50, range). An outline of the steps:
(§1)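 Replicon inhibition for both genotypes was measured as Renilla luciferase signal (EnduRen, 7.5 μM final, 2 h) after 3-day, 37° C exposure of replicon-bearing HUH-7 cells in 4% FCS DMEM, 0.5% DMSO. The 1b construct carries S1179I; the 1a H77 construct carries P1496L and S2204I. Twenty-point, 3-fold dilutions were fitted four-parametrically for EC50, and CC50 was taken from multiplexed Cell Titer-Blue.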

The test system of experiment [2] is HCV genotype 1a (H77 strain) replicon in HUH-7 cells. Kind of experiment: HCV replicon luciferase reporter assay, genotype 1a. It counts as cell-based. The following applies: Hepatitis C virus, Huh-7, 72 h, HCV genotype 1a replicon luciferase, 3 days incubation, read-out: LE_1a (EC50, range). An outline of the steps:
as §1

As a reminder, the EC50 is the concentration needed to bring the measured effect to its halfway point. For `COc1cnc(O[C@@H]2C[C@H]3C(=O)N[C@]4(C(=O)NS(=O)(=O)C5(CF)CC5)C[C@H]4/C=C\CC[C@@H](C)C[C@@H](C)[C@H](NC(=O)OC(C)(C)C(F)(F)F)C(=O)N3C2)c2cc(F)ccc12` [Compound 4083], the EC50 in experiment [1] (GETYPE1B) and in experiment [2] (GETYPE1A) was under 5.46 nM in each case.

With `COc1cc2c(OC)cnc(O[C@@H]3C[C@H]4C(=O)N[C@]5(C(=O)NS(=O)(=O)C6(CF)CC6)C[C@H]5/C=C\CC[C@@H](C)C[C@@H](C)[C@H](NC(=O)OC(C)(C)C)C(=O)N4C3)c2cc1F` [Compound 4084, tert-butyl (2R,6S,7R,9R,13aS,14aR,16aS,Z)-2-(7-fluoro-4,6-dimethoxyisoquinolin-1-yloxy)-14a-(1-(fluoromethyl)cyclopropylsulfonylcarbamoyl)-7,9-dimethyl-5,16-dioxo-1,2,3,5,6,7,8,9,10,11,13a,14,14a,15,16,16a-hexadecahydrocyclopropa[e]pyrrolo[1,2-a][1,4]diazacyclopentadecin-6-ylcarbamate], the EC50 in experiment [1] and in experiment [2] was under 5.46 nM throughout.

In the case of `COc1ccc2nc(O[C@@H]3C[C@H]4C(=O)N[C@]5(C(=O)NS(=O)(=O)C6(C)CC6)C[C@H]5/C=C\CC[C@@H](C)C[C@@H](C)[C@H](NC(=O)OC(C)(C)C)C(=O)N4C3)cnc2c1` [Compound 4085, tert-butyl (2R,6S,7R,9R,13aS,14aR,16aS,Z)-2-(6-methoxyquinoxalin-2-yloxy)-7,9-dimethyl-14a-(1-methylcyclopropylsulfonylcarbamoyl)-5,16-dioxo-1,2,3,5,6,7,8,9,10,11,13a,14,14a,15,16,16a-hexadecahydrocyclopropa[e]pyrrolo[1,2-a][1,4]diazacyclopentadecin-6-ylcarbamate], the EC50 in experiment [1] was under 5.46 nM; in experiment [2] it was 4.82 to 103 nM.

`COc1ccc2ncc(O[C@@H]3C[C@H]4C(=O)N[C@]5(C(=O)NS(=O)(=O)C6(C)CC6)C[C@H]5/C=C\CC[C@@H](C)C[C@@H](C)[C@H](NC(=O)OC(C)(C)C)C(=O)N4C3)nc2c1` [Compound 4086, tert-butyl (2R,6S,7R,9R,13aS,14aR,16aS,Z)-2-(7-methoxyquinoxalin-2-yloxy)-7,9-dimethyl-14a-(1-methylcyclopropylsulfonylcarbamoyl)-5,16-dioxo-1,2,3,5,6,7,8,9,10,11,13a,14,14a,15,16,16a-hexadecahydrocyclopropa[e]pyrrolo[1,2-a][1,4]diazacyclopentadecin-6-ylcarbamate]: the EC50 in experiment [1] and in experiment [2] was under 5.46 nM throughout.

Regarding `COc1ccc2c(O[C@@H]3C[C@H]4C(=O)N[C@]5(C(=O)NS(=O)(=O)C6(C)CC6)C[C@H]5/C=C\CC[C@@H](C)C[C@@H](C)[C@H](NC(=O)OC(C)(C)C)C(=O)N4C3)ncc(-c3ccc(OC)nc3)c2c1` [Compound 4087, tert-butyl (2R,6S,7R,9R,13aS,14aR,16aS,Z)-2-(6-methoxy-4-(6-methoxypyridin-3-yl)isoquinolin-1-yloxy)-7,9-dimethyl-14a-(1-methylcyclopropylsulfonylcarbamoyl)-5,16-dioxo-1,2,3,5,6,7,8,9,10,11,13a,14,14a,15,16,16a-hexadecahydrocyclopropa[e]pyrrolo[1,2-a][1,4]diazacyclopentadecin-6-ylcarbamate], the EC50 in experiment [1] and in experiment [2] was under 5.46 nM each time.

As for `COc1ccc2ncc(O[C@@H]3C[C@H]4C(=O)N[C@]5(C(=O)NS(=O)(=O)C6(CF)CC6)C[C@H]5/C=C\CC[C@@H](C)C[C@@H](C)[C@H](NC(=O)OC(C)(C)C(F)(F)F)C(=O)N4C3)nc2c1` [Compound 4088], the EC50 in experiment [1] (GETYPE1B) and in experiment [2] (GETYPE1A) was under 5.46 nM throughout.

On to `COc1ccc2ncc(O[C@@H]3C[C@H]4C(=O)N[C@]5(C(=O)NS(=O)(=O)C6(CF)CC6)C[C@H]5/C=C\CC[C@@H](C)C[C@@H](C)[C@H](NC(=O)OC(C)(C)C)C(=O)N4C3)nc2c1` [Compound 4089, tert-butyl (2R,6S,7R,9R,13aS,14aR,16aS,Z)-14a-(1-(fluoromethyl)cyclopropylsulfonylcarbamoyl)-2-(7-methoxyquinoxalin-2-yloxy)-7,9-dimethyl-5,16-dioxo-1,2,3,5,6,7,8,9,10,11,13a,14,14a,15,16,16a-hexadecahydrocyclopropa[e]pyrrolo[1,2-a][1,4]diazacyclopentadecin-6-ylcarbamate], for which the EC50 is under 5.46 nM in experiment [1] and 4.82 to 103 nM in experiment [2].

Turning to `COc1cc2ccnc(O[C@@H]3C[C@H]4C(=O)N[C@]5(C(=O)NS(=O)(=O)C6(CF)CC6)C[C@H]5/C=C\CC[C@@H](C)C[C@@H](C)[C@H](NC(=O)C5(C(F)(F)F)CC5)C(=O)N4C3)c2cc1F` [Compound 4090, (2R,6S,7R,9R,13aS,14aR,16aS,Z)-2-(7-fluoro-6-methoxyisoquinolin-1-yloxy)-N-(1-(fluoromethyl)cyclopropylsulfonyl)-7,9-dimethyl-5,16-dioxo-6-(1-(trifluoromethyl)cyclopropanecarboxamido)-1,2,3,5,6,7,8,9,10,11,13a,14,14a,15,16,16a-hexadecahydrocyclopropa[e]pyrrolo[1,2-a][1,4]diazacyclopentadecine-14a-carboxamide], the EC50 in experiment [1] and in experiment [2] was under 5.46 nM throughout.

Consider `COc1cc2ccnc(O[C@@H]3C[C@H]4C(=O)N[C@]5(C(=O)NS(=O)(=O)C6(CF)CC6)C[C@H]5/C=C\CC[C@@H](C)C[C@@H](C)[C@H](NC(=O)C(C)(C)C(F)(F)F)C(=O)N4C3)c2cc1F` [Compound 4091, (2R,6S,7R,9R,13aS,14aR,16aS,Z)-2-(7-fluoro-6-methoxyisoquinolin-1-yloxy)-N-(1-(fluoromethyl)cyclopropylsulfonyl)-7,9-dimethyl-5,16-dioxo-6-(3,3,3-trifluoro-2,2-dimethylpropanamido)-1,2,3,5,6,7,8,9,10,11,13a,14,14a,15,16,16a-hexadecahydrocyclopropa[e]pyrrolo[1,2-a][1,4]diazacyclopentadecine-14a-carboxamide], for which the EC50 in experiment [1] and in experiment [2] was under 5.46 nM in each case.

For the compound `COc1cc2ccnc(O[C@@H]3C[C@H]4C(=O)N[C@]5(C(=O)NS(=O)(=O)C6(C(F)F)CC6)C[C@H]5/C=C\CC[C@@H](C)C[C@@H](C)[C@H](NC(=O)OC(C)(C)C(F)(F)F)C(=O)N4C3)c2cc1F` [Compound 4093], the EC50 in experiment [1] (GETYPE1B) and in experiment [2] (GETYPE1A) was under 5.46 nM each time.

Regarding `COc1cc2c(OC)cnc(O[C@@H]3C[C@H]4C(=O)N[C@]5(C(=O)NS(=O)(=O)C6(C(F)F)CC6)C[C@H]5/C=C\CC[C@@H](C)C[C@@H](C)[C@H](NC(=O)OC(C)(C)C(F)(F)F)C(=O)N4C3)c2cc1F` [Compound 4095], the EC50 in experiment [1] (GETYPE1B) and in experiment [2] (GETYPE1A) was under 5.46 nM each time.

On to `COc1cc2ccnc(O[C@@H]3C[C@H]4C(=O)N[C@]5(C(=O)NS(=O)(=O)C6(CF)CC6)C[C@H]5/C=C\CC[C@@H](C)C[C@@H](C)[C@H](NC(=O)c5ccccc5C(F)(F)F)C(=O)N4C3)c2cc1F` [Compound 4096, (2R,6S,7R,9R,13aS,14aR,16aS,Z)-2-(7-fluoro-6-methoxyisoquinolin-1-yloxy)-N-(1-(fluoromethyl)cyclopropylsulfonyl)-7,9-dimethyl-5,16-dioxo-6-(2-(trifluoromethyl)benzamido)-1,2,3,5,6,7,8,9,10,11,13a,14,14a,15,16,16a-hexadecahydrocyclopropa[e]pyrrolo[1,2-a][1,4]diazacyclopentadecine-14a-carboxamide], for which the EC50 in experiment [1] and in experiment [2] was under 5.46 nM each time.

`COc1cc2ccnc(O[C@@H]3C[C@H]4C(=O)N[C@]5(C(=O)NS(=O)(=O)C6(CF)CC6)C[C@H]5/C=C\CC[C@@H](C)C[C@@H](C)[C@H](NC(=O)c5ccc(F)cc5F)C(=O)N4C3)c2cc1F` [Compound 4097, (2R,6S,7R,9R,13aS,14aR,16aS,Z)-6-(2,4-difluorobenzamido)-2-(7-fluoro-6-methoxyisoquinolin-1-yloxy)-N-(1-(fluoromethyl)cyclopropylsulfonyl)-7,9-dimethyl-5,16-dioxo-1,2,3,5,6,7,8,9,10,11,13a,14,14a,15,16,16a-hexadecahydrocyclopropa[e]pyrrolo[1,2-a][1,4]diazacyclopentadecine-14a-carboxamide]: the EC50 in experiment [1] and in experiment [2] was under 5.46 nM throughout.

As for `C[C@@H]1CC/C=C\[C@@H]2C[C@@]2(C(=O)NS(=O)(=O)C2(C)CC2)NC(=O)[C@@H]2C[C@@H](Oc3cnc4cc(F)ccc4n3)CN2C(=O)[C@@H](NC(=O)OC(C)(C)C(F)(F)F)[C@H](C)C1` [Compound 4099], the half-maximal effective concentration (EC50) in experiment [1] (GETYPE1B) and in experiment [2] (GETYPE1A) was under 5.46 nM each time.

For the compound `CC[C@@H]1C[C@H](C)CC/C=C\[C@@H]2C[C@@]2(C(=O)NS(=O)(=O)C2(C)CC2)NC(=O)[C@@H]2C[C@@H](Oc3cnc4ccc(OC)cc4c3)CN2C(=O)[C@H]1NC(=O)OC(C)(C)C(F)(F)F` [Compound 4100], the EC50 in experiment [1] (GETYPE1B) and in experiment [2] (GETYPE1A) was under 5.46 nM in each case.

Turning to `COc1cc2c(N3CCOCC3)cnc(O[C@@H]3C[C@H]4C(=O)N[C@]5(C(=O)NS(=O)(=O)C6(C)CC6)C[C@H]5/C=C\CC[C@@H](C)C[C@@H](C)[C@H](NC(=O)OC(C)(C)C(F)(F)F)C(=O)N4C3)c2cc1F` [Compound 4101], the EC50 in experiment [1] (GETYPE1B) and in experiment [2] (GETYPE1A) was under 5.46 nM throughout.

`C[C@@H]1CC/C=C\[C@@H]2C[C@@]2(C(=O)NS(=O)(=O)C2(C)CC2)NC(=O)[C@@H]2C[C@@H](Oc3ncc(O)c4ccccc34)CN2C(=O)[C@@H](NC(=O)OC(C)(C)C(F)(F)F)[C@H](C)C1` [Compound 4103]: the EC50 in experiment [1] (GETYPE1B) and in experiment [2] (GETYPE1A) was 4.82 to 103 nM in each case.
